Measurements taken from ChEMBL document CHEMBL1201862, “PubChem BioAssay data set” (2004).
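Briefly, cells in 96-well plates were exposed to five compound concentrations for 48 h, and endpoints were estimated by linear interpolation. Abbreviation: GI50, concentration required for 50% inhibition of growth.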 Activity calls are given as the source filed them. Cut-off read from the data, not from the text of the source: active = GI50 up to about 1.1 µM and inactive = higher.

Key:
Assay in all cases: inhibition of tumour cell growth, NCI panel, 48 h
ACHN = test system: ACHN
SW-620 = test system: SW-620
SK-MEL-28 = test system: SK-MEL-28
NCI-H460 = test system: NCI-H460
SF-295 = test system: SF-295
SK-MEL-5 = test system: SK-MEL-5
NCI-H226 = test system: NCI-H226
COLO 205 = test system: COLO 205
A549 = test system: A549
SR = test system: SR
UO-31 = test system: UO-31
SK-MEL-2 = test system: SK-MEL-2
SF-268 = test system: SF-268
CAKI-1 = test system: CAKI-1
KM12 = test system: KM12
SK-OV-3 = test system: SK-OV-3
UACC-257 = test system: UACC-257
HT-29 = test system: HT-29
HCT-15 = test system: HCT-15
A498 = test system: A498

Structure (SMILES)	GI50 (ACHN)	GI50 (SW-620)	GI50 (SK-MEL-28)	GI50 (NCI-H460)	GI50 (SF-295)	GI50 (SK-MEL-5)	GI50 (NCI-H226)	GI50 (COLO 205)	GI50 (A549)	GI50 (SR)	GI50 (UO-31)	GI50 (SK-MEL-2)	GI50 (SF-268)	GI50 (CAKI-1)	GI50 (KM12)	GI50 (SK-OV-3)	GI50 (UACC-257)	GI50 (HT-29)	GI50 (HCT-15) [µM]	GI50 (A498)
Cc1cc(C)c(S(=O)(=O)N(CCCCN)OCCCN)c(C)c1	22.5 µM (inactive)	17.9 µM (inactive)	18.3 µM (inactive)	19 µM (inactive)	19.6 µM (inactive)	23.7 µM (inactive)	16.5 µM (inactive)	9.04 µM (inactive)	19.3 µM (inactive)	9.59 µM (inactive)	17.5 µM (inactive)	15.1 µM (inactive)	18.4 µM (inactive)	17.4 µM (inactive)	19.5 µM (inactive)	16.8 µM (inactive)	16.2 µM (inactive)	14.3 µM (inactive)		
CCCCCCCCC(O)c1ccc(/C=C\C(O)CCCC(=O)O)s1 (configuration not stated)	> 100 µM (inactive)	> 100 µM (inactive)	> 100 µM (inactive)	> 100 µM (inactive)	> 100 µM (inactive)	> 100 µM (inactive)	> 100 µM (inactive)	> 100 µM (inactive)	> 100 µM (inactive)	> 100 µM (inactive)	> 100 µM (inactive)	> 100 µM (inactive)	> 100 µM (inactive)		> 100 µM (inactive)	> 100 µM (inactive)	> 100 µM (inactive)	> 100 µM (inactive)	> 100	
C=C1c2c(cc3c(c2O)c(=O)c2ccccc2n3C)OC1(C)C	46.9 µM (inactive)	> 100 µM (inactive)	> 100 µM (inactive)	59 µM (inactive)	22.5 µM (inactive)	> 100 µM (inactive)	79.4 µM (inactive)	> 100 µM (inactive)			> 100 µM (inactive)	40.3 µM (inactive)	31.6 µM (inactive)	> 100 µM (inactive)		20 µM (inactive)		37.7 µM (inactive)	> 100	30.9 µM (inactive)
COc1cc(C2C(C(=O)O)=C(COC(C)=O)Oc3cc4c(cc32)OCO4)cc(OC)c1OC (configuration not stated)	> 100 µM (inactive)	> 100 µM (inactive)	> 100 µM (inactive)	> 100 µM (inactive)	> 100 µM (inactive)	> 100 µM (inactive)		> 100 µM (inactive)	> 100 µM (inactive)		> 100 µM (inactive)	> 100 µM (inactive)		> 100 µM (inactive)		> 100 µM (inactive)	> 100 µM (inactive)	> 100 µM (inactive)	> 100	
Cc1cc2c(cc1C)N1Cc3c(ccc(C)c3C)N(C2)C1.Cc1cc2c(cc1C)N1Cc3cc(C)c(C)cc3N(C2)C1		> 100 µM (inactive)	> 100 µM (inactive)	> 100 µM (inactive)	89.5 µM (inactive)	> 100 µM (inactive)	> 100 µM (inactive)	> 100 µM (inactive)	> 100 µM (inactive)				> 100 µM (inactive)		> 100 µM (inactive)	> 100 µM (inactive)		> 100 µM (inactive)		
O=c1c(-c2ccc(O)cc2)coc2cc(O)cc(O)c12 [GENISTEIN]	29.7 µM (inactive)	49.2 µM (inactive)	> 100 µM (inactive)	42 µM (inactive)	55 µM (inactive)	> 100 µM (inactive)	74.1 µM (inactive)	> 100 µM (inactive)	62.4 µM (inactive)	56.8 µM (inactive)	24.9 µM (inactive)		> 100 µM (inactive)		> 100 µM (inactive)			> 100 µM (inactive)	72.9	
O=NN1CCN=C1c1ccc([N+](=O)[O-])cc1	> 100 µM (inactive)	> 100 µM (inactive)	> 100 µM (inactive)	> 100 µM (inactive)	> 100 µM (inactive)	> 100 µM (inactive)	> 100 µM (inactive)	> 100 µM (inactive)	> 100 µM (inactive)	> 100 µM (inactive)	66.2 µM (inactive)		> 100 µM (inactive)	> 100 µM (inactive)	> 100 µM (inactive)	> 100 µM (inactive)	> 100 µM (inactive)	> 100 µM (inactive)	> 100	
Fc1ccccc1C1CC(C(c2ccccc2)c2ccccc2)=Nc2ccccc2S1 (configuration not stated)	11.7 µM (inactive)	6.04 µM (inactive)	12.6 µM (inactive)	4.89 µM (inactive)	9.48 µM (inactive)	11.2 µM (inactive)	13 µM (inactive)	14.8 µM (inactive)	11.4 µM (inactive)		14 µM (inactive)	7.89 µM (inactive)	11.4 µM (inactive)	6.25 µM (inactive)	5.38 µM (inactive)	26.9 µM (inactive)	12.9 µM (inactive)	5.61 µM (inactive)	5.78	6.53 µM (inactive)
CC(NC(=O)C(C)NC(=O)C(N)CCP(C)(=O)O)C(=O)O (configuration not stated)		> 100 µM (inactive)	> 100 µM (inactive)	> 100 µM (inactive)	> 100 µM (inactive)	> 100 µM (inactive)	> 100 µM (inactive)	> 100 µM (inactive)	> 100 µM (inactive)		> 100 µM (inactive)	> 100 µM (inactive)	> 100 µM (inactive)	> 100 µM (inactive)	> 100 µM (inactive)	> 100 µM (inactive)	> 100 µM (inactive)	> 100 µM (inactive)	> 100	> 100 µM (inactive)
Cc1cc(NC(=S)SCc2ccc(F)cc2)c([N+](=O)[O-])cc1C	32.4 µM (inactive)	27.5 µM (inactive)	39.1 µM (inactive)	36.7 µM (inactive)	34.5 µM (inactive)	8.71 µM (inactive)	16.6 µM (inactive)	19.3 µM (inactive)	27.7 µM (inactive)	20.3 µM (inactive)			31.5 µM (inactive)	47.2 µM (inactive)	19.9 µM (inactive)	32.3 µM (inactive)	21 µM (inactive)	13.6 µM (inactive)	18.3	
COc1ccc(/C=C2\CCNC2=O)cc1		> 100 µM (inactive)	> 100 µM (inactive)	> 100 µM (inactive)	> 100 µM (inactive)	> 100 µM (inactive)	> 100 µM (inactive)	> 100 µM (inactive)	> 100 µM (inactive)		75.2 µM (inactive)	> 100 µM (inactive)	> 100 µM (inactive)	> 100 µM (inactive)	> 100 µM (inactive)	> 100 µM (inactive)	> 100 µM (inactive)	> 100 µM (inactive)	> 100	> 53.7 µM (inactive)
COC(=O)[C@@H]1O[C@]12[C@@H](CO[Si](C)(C)C(C)(C)C)O[C@@H](n1cc(C)c(=O)[nH]c1=O)[C@@H]2O[Si](C)(C)C(C)(C)C	16.6 µM (inactive)	11.5 µM (inactive)	19.8 µM (inactive)	11.6 µM (inactive)	21.2 µM (inactive)	19.7 µM (inactive)	21 µM (inactive)	28.4 µM (inactive)	25.5 µM (inactive)			15 µM (inactive)	15.4 µM (inactive)	23.4 µM (inactive)	23 µM (inactive)	32.6 µM (inactive)	22.4 µM (inactive)	6.11 µM (inactive)	4.35	
COc1ccccc1Cc1nc(-c2ccccc2)nn(C2OC(COC(C)=O)C(OC(C)=O)C(OC(C)=O)C2OC(C)=O)c1=S (configuration not stated)		> 72.8 µM (inactive)	49.2 µM (inactive)	> 43.9 µM (inactive)	8.15 µM (inactive)	8.73 µM (inactive)	30.5 µM (inactive)	> 40.4 µM (inactive)	16.4 µM (inactive)		> 48.2 µM (inactive)	11.3 µM (inactive)	6.1 µM (inactive)	16.8 µM (inactive)	> 54.6 µM (inactive)	36.7 µM (inactive)	54.3 µM (inactive)	> 48.3 µM (inactive)	21.5	10.2 µM (inactive)
COc1ccccc1C1C(Cl)C(=O)N1n1cnc2ccccc2c1=O (configuration not stated)	> 100 µM (inactive)	> 100 µM (inactive)	> 100 µM (inactive)	> 100 µM (inactive)	> 100 µM (inactive)	> 100 µM (inactive)	> 100 µM (inactive)	> 100 µM (inactive)	> 100 µM (inactive)	85.9 µM (inactive)	45.6 µM (inactive)	> 100 µM (inactive)	> 100 µM (inactive)	> 100 µM (inactive)	> 100 µM (inactive)	> 100 µM (inactive)	> 100 µM (inactive)	> 100 µM (inactive)	> 100	
O=C(NC(Cc1ccc(I)cc1)C(=O)O)c1ccc(I)cc1 (configuration not stated)			53.3 µM (inactive)	57.9 µM (inactive)	> 100 µM (inactive)	> 75.3 µM (inactive)	> 100 µM (inactive)	> 100 µM (inactive)	98.6 µM (inactive)		14.5 µM (inactive)	> 80.4 µM (inactive)	> 60 µM (inactive)	> 100 µM (inactive)	> 100 µM (inactive)	> 100 µM (inactive)	> 100 µM (inactive)	> 100 µM (inactive)	99.1	> 100 µM (inactive)
CCOC(=O)CCSS(=O)(=O)C(F)(F)F	> 100 µM (inactive)	> 100 µM (inactive)	> 100 µM (inactive)	> 100 µM (inactive)	> 100 µM (inactive)	> 100 µM (inactive)	> 100 µM (inactive)	> 100 µM (inactive)	> 100 µM (inactive)		> 100 µM (inactive)	> 100 µM (inactive)		> 100 µM (inactive)	> 100 µM (inactive)	> 100 µM (inactive)	> 100 µM (inactive)		> 100	> 100 µM (inactive)
